Experimental data reported in ChEMBL document CHEMBL1201862, “PubChem BioAssay data set” (2004).
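All cell lines were grown in 96-well plates and treated with compound for 48 hours. GI50 marks 50% less growth.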 Calls of active or inactive are those of the source. No stated cut-off is given here; in the data, active = GI50 up to about 1.1 µM and inactive = higher.

Experiments:
Experiment in all cases: DTP human tumour cell line panel, 48 h
A549 = test system: A549
CCRF-CEM = test system: CCRF-CEM
EKVX = test system: EKVX
HCC 2998 = test system: HCC 2998
HCT-116 = test system: HCT-116
HCT-15 = test system: HCT-15
HT-29 = test system: HT-29
KM12 = test system: KM12
NCI-H23 = test system: NCI-H23
OVCAR-5 = test system: OVCAR-5
RPMI-8226 = test system: RPMI-8226
SF-268 = test system: SF-268
SF-295 = test system: SF-295
SK-MEL-28 = test system: SK-MEL-28
SK-MEL-2 = test system: SK-MEL-2
SN12C = test system: SN12C
SNB-19 = test system: SNB-19
U-251 = test system: U-251
UACC-257 = test system: UACC-257
UO-31 = test system: UO-31

**Q.** `[N-]=[N+]=Nc1c(C=O)c(=O)n2c3c(cccc13)CCC2` was tested. Which GI50 (A549) did it give?
**A.** The GI50 was 20.8 µM (inactive).

**Q.** And the GI50 (CCRF-CEM)?
**A.** Its GI50 is 0.778 µM (active).

**Q.** And the GI50 (EKVX)?
**A.** Its GI50 is 11.1 µM (inactive).

**Q.** What about the GI50 (HCC 2998) of the same molecule?
**A.** The GI50 was 16.9 µM (inactive).

**Q.** And the GI50 (HCT-116)?
**A.** Its GI50 is 3.15 µM (inactive).

**Q.** And the GI50 (HCT-15)?
**A.** Its GI50 is 3.27 µM.

**Q.** What about the GI50 (HT-29) of the same molecule?
**A.** The GI50 was 10 µM (inactive).

**Q.** What about the GI50 (KM12) of the same molecule?
**A.** Its GI50 is 17.5 µM (inactive).

**Q.** What about the GI50 (NCI-H23) of the same molecule?
**A.** The GI50 was 4.26 µM (inactive).

**Q.** And the GI50 (OVCAR-5)?
**A.** Its GI50 is 7.24 µM (inactive).

**Q.** What about the GI50 (RPMI-8226) of the same molecule?
**A.** The GI50 was 2.87 µM (inactive).

**Q.** What about the GI50 (SF-268) of the same molecule?
**A.** Its GI50 is 14.4 µM (inactive).

**Q.** And the GI50 (SF-295)?
**A.** Its GI50 is 25.9 µM (inactive).

**Q.** And the GI50 (SK-MEL-28)?
**A.** The GI50 was 11.5 µM (inactive).

**Q.** And the GI50 (SK-MEL-2)?
**A.** Its GI50 is > 10 µM (inactive).

**Q.** And the GI50 (SN12C)?
**A.** Its GI50 is 15.4 µM (inactive).

**Q.** And the GI50 (SNB-19)?
**A.** The GI50 was 20 µM (inactive).

**Q.** What about the GI50 (U-251) of the same molecule?
**A.** The GI50 was 13.6 µM (inactive).

**Q.** What about the GI50 (UACC-257) of the same molecule?
**A.** The GI50 was 4.53 µM (inactive).

**Q.** What about the GI50 (UO-31) of the same molecule?
**A.** Its GI50 is 2.49 µM (inactive).

**Q.** Which GI50 (A549) does the source give for `COc1ccc(Sc2ccccc2N)cc1` here?
**A.** The GI50 was 55 µM (inactive).

**Q.** And the GI50 (CCRF-CEM)?
**A.** Its GI50 is 14.4 µM (inactive).

**Q.** And the GI50 (EKVX)?
**A.** The GI50 was 53.7 µM (inactive).

**Q.** And the GI50 (HCC 2998)?
**A.** The GI50 was 41 µM (inactive).

**Q.** And the GI50 (HCT-116)?
**A.** Its GI50 is 49 µM (inactive).

**Q.** What about the GI50 (HCT-15) of the same molecule?
**A.** The GI50 was 37 µM.

**Q.** And the GI50 (HT-29)?
**A.** Its GI50 is 23.3 µM (inactive).

**Q.** And the GI50 (KM12)?
**A.** The GI50 was 41.3 µM (inactive).

**Q.** And the GI50 (NCI-H23)?
**A.** Its GI50 is 43.6 µM (inactive).

**Q.** And the GI50 (OVCAR-5)?
**A.** The GI50 was 46.5 µM (inactive).

**Q.** And the GI50 (RPMI-8226)?
**A.** Its GI50 is 45.9 µM (inactive).

**Q.** And the GI50 (SF-268)?
**A.** Its GI50 is 43.1 µM (inactive).

**Q.** And the GI50 (SF-295)?
**A.** Its GI50 is 39.3 µM (inactive).

**Q.** And the GI50 (SK-MEL-28)?
**A.** Its GI50 is 43.4 µM (inactive).

**Q.** What about the GI50 (SK-MEL-2) of the same molecule?
**A.** The GI50 was > 100 µM (inactive).

**Q.** What about the GI50 (SN12C) of the same molecule?
**A.** The GI50 was 33.1 µM (inactive).

**Q.** What about the GI50 (SNB-19) of the same molecule?
**A.** The GI50 was > 100 µM (inactive).

**Q.** What about the GI50 (U-251) of the same molecule?
**A.** The GI50 was 19 µM (inactive).

**Q.** And the GI50 (UACC-257)?
**A.** The GI50 was 38.5 µM (inactive).

**Q.** And the GI50 (UO-31)?
**A.** Its GI50 is 21.8 µM (inactive).

**Q.** What does the source list for `C=C/C(C)=C/[C@H](C)C(=O)C[C@H](O)CC1CC(=O)NC(=O)C1`?
**A.** GI50 (A549): 51.3 µM (inactive); GI50 (CCRF-CEM): 25 µM (inactive); GI50 (EKVX): 24.1 µM (inactive); GI50 (HCC 2998): 20.2 µM (inactive); GI50 (HCT-116): 40.3 µM (inactive); GI50 (HCT-15): 44.7 µM; GI50 (HT-29): 34 µM (inactive); GI50 (KM12): 32.7 µM (inactive); GI50 (NCI-H23): 36.9 µM (inactive); GI50 (OVCAR-5): 58.9 µM (inactive); GI50 (RPMI-8226): 31.8 µM (inactive); GI50 (SF-268): 36 µM (inactive); GI50 (SF-295): 36.1 µM (inactive); GI50 (SK-MEL-28): 28.6 µM (inactive); GI50 (SK-MEL-2): 28.9 µM (inactive); GI50 (SN12C): 25.5 µM (inactive); GI50 (SNB-19): 18.7 µM (inactive); GI50 (U-251): 34.5 µM (inactive); GI50 (UACC-257): 30.1 µM (inactive); GI50 (UO-31): 48.9 µM (inactive)

**Q.** With `CN(C(=O)c1ccc(OCCCC(=O)O)c(Cl)c1Cl)C1CCCC1` as the molecule, how does the GI50 (A549) read?
**A.** Its GI50 is > 100 µM (inactive).

**Q.** What about the GI50 (CCRF-CEM) of the same molecule?
**A.** The GI50 was > 100 µM (inactive).

**Q.** And the GI50 (EKVX)?
**A.** Its GI50 is > 100 µM (inactive).

**Q.** And the GI50 (HCC 2998)?
**A.** The GI50 was > 100 µM (inactive).

**Q.** What about the GI50 (HCT-116) of the same molecule?
**A.** The GI50 was > 62.8 µM (inactive).

**Q.** What about the GI50 (HCT-15) of the same molecule?
**A.** Its GI50 is > 100 µM.

**Q.** What about the GI50 (HT-29) of the same molecule?
**A.** The GI50 was > 100 µM (inactive).

**Q.** What about the GI50 (KM12) of the same molecule?
**A.** The GI50 was > 100 µM (inactive).

**Q.** What about the GI50 (NCI-H23) of the same molecule?
**A.** Its GI50 is > 76.7 µM (inactive).

**Q.** What about the GI50 (OVCAR-5) of the same molecule?
**A.** The GI50 was > 100 µM (inactive).

**Q.** What about the GI50 (RPMI-8226) of the same molecule?
**A.** Its GI50 is 98.6 µM (inactive).

**Q.** And the GI50 (SF-268)?
**A.** Its GI50 is > 96.4 µM (inactive).

**Q.** What about the GI50 (SF-295) of the same molecule?
**A.** Its GI50 is > 72.6 µM (inactive).

**Q.** What about the GI50 (SK-MEL-28) of the same molecule?
**A.** Its GI50 is > 100 µM (inactive).

**Q.** What about the GI50 (SK-MEL-2) of the same molecule?
**A.** The GI50 was > 79.8 µM (inactive).

**Q.** And the GI50 (SN12C)?
**A.** The GI50 was > 100 µM (inactive).

**Q.** And the GI50 (SNB-19)?
**A.** Its GI50 is > 100 µM (inactive).

**Q.** What about the GI50 (U-251) of the same molecule?
**A.** The GI50 was > 100 µM (inactive).

**Q.** What about the GI50 (UACC-257) of the same molecule?
**A.** Its GI50 is > 100 µM (inactive).

**Q.** And the GI50 (UO-31)?
**A.** The GI50 was > 60 µM (inactive).

**Q.** Which GI50 (A549) does the source give for `COc1cc(C2c3cc4c(cc3[C@@H](Nc3cccc(C(C)=O)c3)C3COC(=O)[C@H]23)OCO4)cc(OC)c1O` (stereo not given in full) here?
**A.** Its GI50 is < 0.0184 µM (active).

**Q.** What about the GI50 (CCRF-CEM) of the same molecule?
**A.** Its GI50 is 0.0349 µM (active).

**Q.** And the GI50 (EKVX)?
**A.** Its GI50 is 2.21 µM (inactive).

**Q.** And the GI50 (HCC 2998)?
**A.** Its GI50 is 1.34 µM (inactive).

**Q.** And the GI50 (HCT-116)?
**A.** The GI50 was 0.664 µM (active).

**Q.** And the GI50 (HCT-15)?
**A.** The GI50 was 0.307 µM.

**Q.** And the GI50 (HT-29)?
**A.** Its GI50 is 1.1 µM (active).

**Q.** And the GI50 (KM12)?
**A.** Its GI50 is 1.59 µM (inactive).

**Q.** What about the GI50 (NCI-H23) of the same molecule?
**A.** The GI50 was 0.264 µM (active).

**Q.** And the GI50 (OVCAR-5)?
**A.** The GI50 was 2.1 µM (inactive).

**Q.** And the GI50 (RPMI-8226)?
**A.** Its GI50 is 0.197 µM (active).

**Q.** And the GI50 (SF-268)?
**A.** Its GI50 is 0.577 µM (active).

**Q.** What about the GI50 (SF-295) of the same molecule?
**A.** Its GI50 is 0.126 µM (active).

**Q.** And the GI50 (SK-MEL-28)?
**A.** The GI50 was 3.01 µM (inactive).

**Q.** What about the GI50 (SK-MEL-2) of the same molecule?
**A.** The GI50 was 2.65 µM (inactive).

**Q.** What about the GI50 (SN12C) of the same molecule?
**A.** Its GI50 is 0.405 µM (active).

**Q.** And the GI50 (SNB-19)?
**A.** The GI50 was 0.236 µM (active).

**Q.** And the GI50 (U-251)?
**A.** Its GI50 is 0.245 µM (active).

**Q.** And the GI50 (UACC-257)?
**A.** Its GI50 is 1.05 µM (active).

**Q.** And the GI50 (UO-31)?
**A.** The GI50 was 0.291 µM (active).

**Q.** What does the source list for `CN1CC=C(c2cccn2C)CC1`?
**A.** GI50 (A549): > 100 µM (inactive); GI50 (CCRF-CEM): > 100 µM (inactive); GI50 (EKVX): > 100 µM (inactive); GI50 (HCC 2998): > 100 µM (inactive); GI50 (HCT-116): > 100 µM (inactive); GI50 (HCT-15): > 100 µM; GI50 (HT-29): > 100 µM (inactive); GI50 (KM12): > 100 µM (inactive); GI50 (NCI-H23): > 100 µM (inactive); GI50 (OVCAR-5): > 100 µM (inactive); GI50 (RPMI-8226): > 100 µM (inactive); GI50 (SF-268): > 100 µM (inactive); GI50 (SF-295): > 100 µM (inactive); GI50 (SK-MEL-28): > 100 µM (inactive); GI50 (SK-MEL-2): > 100 µM (inactive); GI50 (SN12C): > 100 µM (inactive); GI50 (SNB-19): > 100 µM (inactive); GI50 (U-251): > 100 µM (inactive); GI50 (UACC-257): > 100 µM (inactive); GI50 (UO-31): > 100 µM (inactive)
